Measured values as given in patent US20230022157A1 (Achillion Pharmaceuticals, Inc., priority 2018, published 2023).

Molecular target: T1, Human Factor D (Homo sapiens, UniProt P00746)
T1 construct: purified from human serum; purchased Complement Technology, Inc; host or cells: human serum (natural protein, not recombinant)
Experiment: Human Factor D Assay
Assay type: biochemical
Conditions: Human Factor D 80 nM, substrate Z-L-Lys-SBzl, assay of Example 3; read-out: IC50 (Stars)
Procedure, shortened: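 Serum-purified human factor D (80 nM final) preincubated 5 min at room temperature with test compound in 50 mM Tris, 1M NaCl, pH 7.5. Z-L-Lys-SBzl substrate and DTNB then added, each at 100 μM final. IC50 from nonlinear regression of reaction rate against compound concentration.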

T1 sequence (P00746 26-253): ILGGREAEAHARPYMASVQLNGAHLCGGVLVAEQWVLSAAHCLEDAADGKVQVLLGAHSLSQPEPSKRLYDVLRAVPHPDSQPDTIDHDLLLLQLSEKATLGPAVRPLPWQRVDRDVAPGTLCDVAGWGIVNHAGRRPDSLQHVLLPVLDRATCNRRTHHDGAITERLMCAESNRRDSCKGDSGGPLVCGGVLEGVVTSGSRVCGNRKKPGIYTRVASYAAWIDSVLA

| IC50 | SMILES |
| --- | --- |
| < 1000 nM | CONC(=O)c1nn(CC(=O)N2[C@H](C(=O)Nc3nc(Br)ccc3C)C[C@@]3(C)C[C@@H]23)c2ccc(-c3cnc(C)nc3)cc12 [Compound 9, 1-(2-((1R,3S,5R)-3-((6-Bromo-3-methylpyridin-2-yl)carbamoyl)-5-methyl-2-azabicyclo[3.1.0]hexan-2-yl)-2-oxoethyl)-N-methoxy-5-(2-methylpyrimidin-5-yl)-1H-indazole-3-carboxamide] |
| < 1000 nM | CC(=O)c1nn(CC(=O)N2[C@H](C(=O)Nc3nc(Br)ccc3C)C[C@@]3(CO)C[C@@H]23)c2c(C)cc(-c3cnc(C)nc3)cc12 [Compound 21, (1R,3S,5S)-2-(2-(3-Acetyl-7-methyl-5-(2-methylpyrimidin-5-yl)-1H-indazol-1-yl)acetyl)-N-(6-bromo-3-methylpyridin-2-yl)-5-(hydroxymethyl)-2-azabicyclo[3.1.0]hexane-3-carboxamide] |
| 1000 to 10000 nM | CC(=O)c1nn(CC(=O)N2C[C@H](F)C[C@H]2C(=O)Oc2cccc(Br)n2)c2ccc(-c3cnc(C)nc3)cc12 [Compound 37, (2S,4R)-6-Bromopyridin-2-yl 1-(2-(3-acetyl-5-(2-methylpyrimidin-5-yl)-1H-indazol-1-yl)acetyl)-4-fluoropyrrolidine-2-carboxylate] |
| < 1000 nM | CCCCC[C@@H](C)NC(=O)[C@@H]1C[C@@]2(C)C[C@H]2N1C(=O)Cn1nc(C(C)=O)c2cc(-c3cnc(C)nc3)ccc21 [Compound 17, (1R,3S,5R)-2-(2-(3-Acetyl-5-(2-methylpyrimidin-5-yl)-1H-indazol-1-yl)acetyl)-N—((R)-heptan-2-yl)-5-methyl-2-azabicyclo[3.1.0]hexane-3-carboxamide] |
| < 1000 nM | CC(=O)c1nn(CC(=O)N2[C@H](C(=O)NCCc3ccccc3Cl)C[C@@]3(C)C[C@@H]23)c2c(C)cc(-c3cnc(C)nc3)cc12 [Compound 3, (1R,3S,5R)-2-(2-(3-Acetyl-7-methyl-5-(2-methylpyrimidin-5-yl)-1H-indazol-1-yl)acetyl)-N-(2-chlorophenethyl)-5-methyl-2-azabicyclo[3.1.0]hexane-3-carboxamide] |

Same assay, conditions: Human Factor D 80 nM, substrate Z-L-Lys-SBzl; Table 2; read-out: IC50 (Stars)

| SMILES | IC50 |
| --- | --- |
| COCCOC[C@@]12C[C@@H](C(=O)Nc3nc(Br)ccc3C)N(C(=O)Cn3nc(C(C)=O)c4cc(-c5cnc(CO)nc5)cc(C)c43)[C@@H]1C2 [Compound 108, (1R,3S,5S)-2-(2-(3-acetyl-5-(2-(hydroxymethyl)pyrimidin-5-yl)-7-methyl-1H-indazol-1-yl)acetyl)-N-(6-bromo-3-methylpyridin-2-yl)-5-((2-methoxyethoxy)methyl)-2-azabicyclo[3.1.0]hexane-3-carboxamide] | 1000 to 10000 nM |
| CC(=O)c1nn(CC(=O)N2[C@H](C(=O)N[C@H]3CCCCC34OCCO4)C[C@@]3(C)C[C@@H]23)c2c(C)cc(-c3cnc(C)nc3)cc12 (single isomer, unassigned) [Compound 135] | 1000 to 10000 nM |
| CC(=O)c1cn(CC(=O)N2[C@H](C(=O)Nc3nc(C(F)(F)F)ccc3C)C[C@@]3(C)C[C@@H]23)c2c(C)cc(-c3cnc4cc(CO)nn4c3)cc12 [Compound 226, (1R,3S,5R)-2-(2-(3-acetyl-5-(2-(hydroxymethyl)pyrazolo[1,5-a]pyrimidin-6-yl)-7-methyl-1H-indol-1-yl)acetyl)-5-methyl-N-(3-methyl-6-(trifluoromethyl)pyridin-2-yl)-2-azabicyclo[3.1.0]hexane-3-carboxamide] | < 1000 nM |
| CC(=O)c1nn(CC(=O)N2[C@H]3CC[C@H](C3)[C@H]2C(=O)Nc2nc(Br)ccc2C)c2c(C)cc(-c3cnc(C)nc3)cc12 [Compound 99, (1S,3S,4R)-2-(2-(3-Acetyl-7-methyl-5-(2-methylpyrimidin-5-yl)-1H-indazol-1-yl)acetyl)-N-(6-bromo-3-methylpyridin-2-yl)-2-azabicyclo[2.2.1]heptane-3-carboxamide] | < 1000 nM |
| CC(=O)c1nn(CC(=O)N2[C@H](C(=O)Nc3nc(Br)ccc3C)C[C@@]3(C)C[C@@H]23)c2ccc(-c3cnc(C(=O)O)nc3)cc12 [Compound 47, 5-(3-acetyl-1-(2-((1R,3S,5R)-3-((6-bromo-3-methylpyridin-2-yl)carbamoyl)-5-methyl-2-azabicyclo[3.1.0]hexan-2-yl)-2-oxoethyl)-1H-indazol-5-yl)pyrimidine-2-carboxylic acid] | < 1000 nM |
| CC(=O)c1nn(CCN2C[C@H](F)C[C@H]2C(=O)Nc2cccc(Br)n2)c2ccc(-c3cnc(C)nc3)cc12 [Compound 139, (2S,4R)-1-(2-(3-acetyl-5-(2-methylpyrimidin-5-yl)-1H-indazol-1-yl)ethyl)-N-(6-bromopyridin-2-yl)-4-fluoropyrrolidine-2-carboxamide] | > 10000 nM |

The next lines start with the values.

| IC50 | SMILES |
| --- | --- |
| < 1000 nM | CC(=O)c1nn(CC(=O)N2[C@H](C(=O)Nc3nc(C(F)(F)F)ccc3C)C[C@@]3(C)C[C@@H]23)c2c(C)cc(-c3cnc(CO)nc3)cc12 [Compound 54, (1R,3S,5R)-2-(2-(3-acetyl-5-(2-(hydroxymethyl)pyrimidin-5-yl)-7-methyl-1H-indazol-1-yl)acetyl)-5-methyl-N-(3-methyl-6-(trifluoromethyl)pyridin-2-yl)-2-azabicyclo[3.1.0]hexane-3-carboxamide] |
| < 1000 nM | CC(=O)c1nn(CC(=O)N2[C@H](C(=O)Nc3ccc(F)c(Br)n3)C[C@@]3(C)C[C@@H]23)c2c(C)cc(-c3cnc(CO)nc3)cc12 [Compound 120, (1R,3S,5R)-2-(2-(3-acetyl-5-(2-(hydroxymethyl)pyrimidin-5-yl)-7-methyl-1H-indazol-1-yl)acetyl)-N-(6-bromo-5-fluoropyridin-2-yl)-5-methyl-2-azabicyclo[3.1.0]hexane-3-carboxamide] |
| < 1000 nM | COC(=O)c1ncc(-c2cc(C)c3c(c2)c(C(C)=O)nn3CC(=O)N2[C@H](C(=O)Nc3cncc(Br)n3)C[C@@]3(C)C[C@@H]23)cn1 [Compound 42, Methyl 5-(3-acetyl-1-(2-((1R,3S,5R)-3-((6-bromopyrazin-2-yl)carbamoyl)-5-methyl-2-azabicyclo[3.1.0]hexan-2-yl)-2-oxoethyl)-7-methyl-1H-indazol-5-yl)pyrimidine-2-carboxylate] |
| < 1000 nM | CC(=O)c1cn(CC(=O)N2[C@H](C(=O)Nc3nc(Br)c(F)cc3C)C[C@@]3(C)C[C@@H]23)c2c(C)cc(-c3cnc(C)nc3)cc12 [Compound 144, (1R,3S,5R)-2-(2-(3-acetyl-7-methyl-5-(2-methylpyrimidin-5-yl)-1H-indol-1-yl)acetyl)-N-(6-bromo-5-fluoro-3-methylpyridin-2-yl)-5-methyl-2-azabicyclo[3.1.0]hexane-3-carboxamide] |
| < 1000 nM | COc1cc(Br)nc(NC(=O)[C@@H]2C[C@@]3(C)C[C@H]3N2C(=O)Cn2nc(C(C)=O)c3cc(-c4cnc(CO)nc4)ccc32)c1 [Compound 67, (1R,3S,5R)-2-(2-(3-acetyl-5-(2-(hydroxymethyl)pyrimidin-5-yl)-1H-indazol-1-yl)acetyl)-N-(6-bromo-4-methoxypyridin-2-yl)-5-methyl-2-azabicyclo[3.1.0]hexane-3-carboxamide] |
| < 1000 nM | CC(=O)c1nn(CC(=O)N2[C@H](C(=O)Nc3nc(Br)ccc3C)C[C@@]3(C)C[C@@H]23)c2c(C)cc(-c3cnc(C(N)=O)nc3)cc12 [Compound 53, (1R,3S,5R)-2-(2-(3-acetyl-5-(2-carbamoylpyrimidin-5-yl)-7-methyl-1H-indazol-1-yl)acetyl)-N-(6-bromo-3-methylpyridin-2-yl)-5-methyl-2-azabicyclo[3.1.0]hexane-3-carboxamide] |
| < 1000 nM | CC(=O)c1cn(CC(=O)N2[C@H](C(=O)Nc3nc(Br)ccc3C)C[C@@]3(C)C[C@@H]23)c2c(C)cc(-c3cnc(C(C)F)nc3)cc12 (stereo partly drawn) [Compound 216, (1R,3S,5R)-2-(2-(3-acetyl-5-(2-(1-fluoroethyl)pyrimidin-5-yl)-7-methyl-1H-indol-1-yl)acetyl)-N-(6-bromo-3-methylpyridin-2-yl)-5-methyl-2-azabicyclo[3.1.0]hexane-3-carboxamide] |
| 1000 to 10000 nM | CC(=O)c1cn(CC(=O)N2[C@H](C(=O)Nc3cncc(Br)n3)C[C@@]3(C)C[C@@H]23)c2c(C)cc(-c3cnc(CF)nc3)cc12 [Compound 218, (1R,3S,5R)-2-(2-(3-acetyl-5-(2-(fluoromethyl)pyrimidin-5-yl)-7-methyl-1H-indol-1-yl)acetyl)-N-(6-bromopyrazin-2-yl)-5-methyl-2-azabicyclo[3.1.0]hexane-3-carboxamide] |
| < 1000 nM | CC(=O)c1cn(CC(=O)N2[C@H](C(=O)Nc3nc(Br)c(F)cc3C)C[C@@]3(C)C[C@@H]23)c2c(C)cc(-c3cnc(CO)nc3)cc12 [Compound 78, (1R,3S,5R)-2-(2-(3-acetyl-5-(2-(hydroxymethyl)pyrimidin-5-yl)-7-methyl-1H-indol-1-yl)acetyl)-N-(6-bromo-5-fluoro-3-methylpyridin-2-yl)-5-methyl-2-azabicyclo[3.1.0]hexane-3-carboxamide] |
| < 1000 nM | CC(=O)c1cn(CC(=O)N2[C@H](C(=O)Nc3nc(Br)ccc3Cl)C[C@@]3(C)C[C@@H]23)c2c(C)cc(-c3cnc(CO)nc3)cc12 [Compound 84, (1R,3S,5R)-2-(2-(3-acetyl-5-(2-(hydroxymethyl)pyrimidin-5-yl)-7-methyl-1H-indol-1-yl)acetyl)-N-(6-bromo-3-chloropyridin-2-yl)-5-methyl-2-azabicyclo[3.1.0]hexane-3-carboxamide] |
| < 1000 nM | CC(=O)c1nn(CC(=O)N2[C@H](C(=O)Nc3nc(Br)ccc3C3CC3)C[C@@]3(C)C[C@@H]23)c2c(C)cc(-c3cnc(CO)nc3)cc12 [Compound 66, (1R,3S,5R)-2-(2-(3-acetyl-5-(2-(hydroxymethyl)pyrimidin-5-yl)-7-methyl-11H-indazol-1-yl)acetyl)-N-(6-bromo-3-cyclopropylpyridin-2-yl)-5-methyl-2-azabicyclo[3.1.0]hexane-3-carboxamide] |
